# pIC50: −log10 of the molar value.
# Key:
# [1] = test system: L. infantum intracellular amastigotes; test: Activity against L. infantum intracellular amastigotes (luciferase); format: cell-based, Leishmania infantum; settings: at 10 μM, intracellular amastigotes
# Procedure: Luciferase-expressing L. infantum (MHOM/MA/67/ITMAP-263) axenic amastigotes were cultured in MAA/20 medium at 37 °C with 5% CO2. The parasites were maintained in 5 mL T25 ventilated flasks and subcultured every 7 days at a concentration of 1 × 10^6 cells/mL.
# The activity against Leishmania infantum intracellular amastigotes was evaluated following the method described with modifications. THP-1 cells were differentiated into macrophages with PMA as described above. The cells were then infected with L. infantum axenic amastigotes expressing episomal luciferase at a macrophage-to-amastigote ratio of 1:10 for 4 h at 37 °C and 5% CO2. Noninternalized parasites were washed away, and compounds were added at various concentrations to a final volume of 100 μL. A dose–response curve for miltefosine was included in all assays as a quality control. Each condition was tested in quadruplicate. After 72 h of incubation, the medium was replaced with 100 μL of PBS, and 25 μL of Glo-lysis buffer from the Steady-Glo Luciferase Assay System (Promega, Madison, WI, USA) was added. The plates were agitated at 100 rpm for 10 min at room temperature. Subsequently, 30 μL of the Steady-Glo reagent (Promega, Madison, WI, USA) was added and incubated for 15 min in the dark under the same conditions. A total of 140 μL from each well was transferred to white-bottom 96-well plates, and luminescence intensity was measured using a Synergy 2 multimode reader (Biotek, Winooski, VT, USA). The antileishmanial effect was evaluated by comparison of the nontreated infected cells. The IC50 was determined (for miltefosine) through nonlinear regression analysis using GraphPad Prism version 8.1.1 for Windows (GraphPad Software, San Diego, CA, USA). Results represent the average of at least three independent experiments.
# CYP1A2 = biological target: T1, CYP1A2 (Homo sapiens, UniProt P05177); test: Cytochrome P450 assay (P450-Glo), isoform 1A2; format: in vitro ADME
# T1 construct: purchased Promega; host or cells: baculovirus-infected insect cells
# T1 sequence (P05177 1-516): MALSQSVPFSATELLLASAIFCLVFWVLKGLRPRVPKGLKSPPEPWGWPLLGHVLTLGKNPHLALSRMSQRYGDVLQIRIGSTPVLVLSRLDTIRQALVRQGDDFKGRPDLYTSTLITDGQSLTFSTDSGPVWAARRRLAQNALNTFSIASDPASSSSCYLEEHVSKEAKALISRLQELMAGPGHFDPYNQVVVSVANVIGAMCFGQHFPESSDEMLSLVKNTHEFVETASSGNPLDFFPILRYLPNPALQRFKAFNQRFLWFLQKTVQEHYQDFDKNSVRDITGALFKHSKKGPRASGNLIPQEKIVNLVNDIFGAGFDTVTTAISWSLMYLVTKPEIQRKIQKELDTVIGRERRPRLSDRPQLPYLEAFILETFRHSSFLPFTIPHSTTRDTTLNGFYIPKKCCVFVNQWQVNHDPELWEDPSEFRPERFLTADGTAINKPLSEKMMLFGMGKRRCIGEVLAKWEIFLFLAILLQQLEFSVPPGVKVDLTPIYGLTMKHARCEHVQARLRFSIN
# From the text: (§1) 3A4. The Promega P450-Glo assay platform was used with microsomal preparations of
# (§2) cytochrome P450s from baculovirus-infected insect cells. […]
# CYP2C9 = biological target: T2, CYP2C9 (Homo sapiens, UniProt P11712); test: Cytochrome P450 assay (P450-Glo), isoform 2C9; format: in vitro ADME
# T2 construct: purchased Promega; host or cells: baculovirus-infected insect cells
# From the text: as §1, §2
# CYP2C19 = biological target: T3, CYP2C19 (Homo sapiens, UniProt P33261); test: Cytochrome P450 assay (P450-Glo), isoform 2C19; format: in vitro ADME; settings: read-out: CYP 2C19 IC50
# T3 construct: purchased Promega; host or cells: baculovirus-infected insect cells
# From the text: as §1, §2
# CYP3A4 = biological target: T4, CYP3A4 (Homo sapiens, UniProt P08684); test: Cytochrome P450 assay (P450-Glo), isoform 3A4; format: in vitro ADME; settings: read-out: CYP 3A4 IC50
# T4 construct: purchased Promega; host or cells: baculovirus-infected insect cells
# From the text: as §1, §2
# [2] = Cytotoxicity against A549 cells (CellTiter-Glo); format: cell-based; settings: human, A549 cells; read-out: A549 cytotoxicity GI50 (50% growth inhibition)
# Procedure: (§3) Cytotoxicity against A549 cells. The CellTiter-Glo assay from Promega was used. It detects the cellular ATP content, which is directly proportional to the number of viable cells. The A549 cells were obtained from DSMZ (German Collection of Microorganisms and Cell Cultures, Braunschweig, Germany) and cultured in Dulbecco’s modified Eagle medium (DMEM) with FCS (10% v/v), streptomycin (100 µg/mL), and penicillin G (100 U/mL)23. […]
# A549 cells = test: Cytotoxicity against A549 cells (CellTiter-Glo); format: cell-based
# Procedure: as §3
# 786-O cell line = test: Mitochondrial toxicity (MitoTracker Red uptake, high content imaging); format: cell-based; settings: Homo sapiens, 786-0; read-out: mitotox. IC50
# From the text: Mitochondrial toxicity caused by the synthesized compounds. Uptake of Mito-
# Tracker Red (chloromethyl-X-rosamine) to the 786-O cell line was detected with high content
# imaging. […]
# hERG = biological target: T5, hERG (Homo sapiens, UniProt Q12809); test: hERG liability assay
# T5 construct: purchased Invitrogen
# T5 sequence (Q12809 whole entry): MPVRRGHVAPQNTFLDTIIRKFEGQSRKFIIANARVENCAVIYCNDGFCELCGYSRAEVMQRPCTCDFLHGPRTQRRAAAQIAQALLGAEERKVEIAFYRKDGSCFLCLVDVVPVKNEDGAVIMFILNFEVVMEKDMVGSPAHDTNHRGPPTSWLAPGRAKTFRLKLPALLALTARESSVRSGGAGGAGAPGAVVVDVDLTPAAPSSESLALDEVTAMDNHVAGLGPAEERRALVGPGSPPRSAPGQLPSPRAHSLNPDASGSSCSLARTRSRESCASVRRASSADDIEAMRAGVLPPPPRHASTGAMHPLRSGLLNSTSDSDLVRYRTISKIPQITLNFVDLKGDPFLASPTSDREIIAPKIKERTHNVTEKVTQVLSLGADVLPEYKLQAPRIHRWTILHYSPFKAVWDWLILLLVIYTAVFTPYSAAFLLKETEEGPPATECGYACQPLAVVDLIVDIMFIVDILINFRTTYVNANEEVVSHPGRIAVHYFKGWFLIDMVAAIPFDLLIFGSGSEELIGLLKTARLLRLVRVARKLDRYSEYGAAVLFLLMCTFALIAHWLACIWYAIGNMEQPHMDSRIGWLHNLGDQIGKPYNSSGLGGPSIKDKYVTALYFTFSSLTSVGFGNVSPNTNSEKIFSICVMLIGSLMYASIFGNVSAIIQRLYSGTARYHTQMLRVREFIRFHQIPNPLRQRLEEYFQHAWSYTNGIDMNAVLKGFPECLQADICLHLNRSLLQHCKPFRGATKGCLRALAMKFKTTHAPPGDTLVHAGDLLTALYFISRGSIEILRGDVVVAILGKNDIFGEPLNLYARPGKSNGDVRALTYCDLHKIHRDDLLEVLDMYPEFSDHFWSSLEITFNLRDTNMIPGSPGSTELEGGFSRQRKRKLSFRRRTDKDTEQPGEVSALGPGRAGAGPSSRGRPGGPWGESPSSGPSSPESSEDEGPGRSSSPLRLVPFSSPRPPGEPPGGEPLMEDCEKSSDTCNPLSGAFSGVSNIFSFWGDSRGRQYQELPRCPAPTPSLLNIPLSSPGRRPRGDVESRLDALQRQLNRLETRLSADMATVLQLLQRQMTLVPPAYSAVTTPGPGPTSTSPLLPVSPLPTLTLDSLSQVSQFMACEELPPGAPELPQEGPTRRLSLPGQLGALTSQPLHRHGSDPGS
# T3 sequence (P33261 whole entry, canonical isoform): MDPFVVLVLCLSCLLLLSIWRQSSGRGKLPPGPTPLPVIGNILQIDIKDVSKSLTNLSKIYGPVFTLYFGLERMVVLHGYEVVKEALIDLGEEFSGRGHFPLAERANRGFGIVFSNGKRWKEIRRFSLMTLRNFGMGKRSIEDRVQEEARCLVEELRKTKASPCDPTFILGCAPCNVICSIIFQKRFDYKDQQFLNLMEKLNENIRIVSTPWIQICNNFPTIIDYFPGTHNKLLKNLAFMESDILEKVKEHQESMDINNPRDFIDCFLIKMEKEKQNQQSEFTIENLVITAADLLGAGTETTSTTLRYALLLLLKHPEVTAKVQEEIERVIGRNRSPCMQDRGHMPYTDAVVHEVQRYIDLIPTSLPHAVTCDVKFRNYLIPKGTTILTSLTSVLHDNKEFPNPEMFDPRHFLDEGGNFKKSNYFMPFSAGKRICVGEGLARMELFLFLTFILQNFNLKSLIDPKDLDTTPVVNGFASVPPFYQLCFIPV
# T2 sequence (P11712 whole entry, canonical isoform): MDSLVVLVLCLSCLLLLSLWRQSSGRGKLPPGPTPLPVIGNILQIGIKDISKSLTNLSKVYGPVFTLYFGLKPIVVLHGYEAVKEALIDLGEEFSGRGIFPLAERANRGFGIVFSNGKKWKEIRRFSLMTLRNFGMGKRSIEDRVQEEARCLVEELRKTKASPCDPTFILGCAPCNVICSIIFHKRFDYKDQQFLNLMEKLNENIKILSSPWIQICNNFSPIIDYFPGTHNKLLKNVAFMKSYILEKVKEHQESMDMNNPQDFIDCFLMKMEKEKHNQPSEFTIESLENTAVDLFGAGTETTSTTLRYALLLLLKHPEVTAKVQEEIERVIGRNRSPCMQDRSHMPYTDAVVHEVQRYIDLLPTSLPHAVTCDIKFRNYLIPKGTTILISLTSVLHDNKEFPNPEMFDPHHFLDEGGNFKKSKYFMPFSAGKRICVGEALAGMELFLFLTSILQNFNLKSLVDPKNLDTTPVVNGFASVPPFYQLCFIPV
# T4 sequence (P08684 whole entry, canonical isoform): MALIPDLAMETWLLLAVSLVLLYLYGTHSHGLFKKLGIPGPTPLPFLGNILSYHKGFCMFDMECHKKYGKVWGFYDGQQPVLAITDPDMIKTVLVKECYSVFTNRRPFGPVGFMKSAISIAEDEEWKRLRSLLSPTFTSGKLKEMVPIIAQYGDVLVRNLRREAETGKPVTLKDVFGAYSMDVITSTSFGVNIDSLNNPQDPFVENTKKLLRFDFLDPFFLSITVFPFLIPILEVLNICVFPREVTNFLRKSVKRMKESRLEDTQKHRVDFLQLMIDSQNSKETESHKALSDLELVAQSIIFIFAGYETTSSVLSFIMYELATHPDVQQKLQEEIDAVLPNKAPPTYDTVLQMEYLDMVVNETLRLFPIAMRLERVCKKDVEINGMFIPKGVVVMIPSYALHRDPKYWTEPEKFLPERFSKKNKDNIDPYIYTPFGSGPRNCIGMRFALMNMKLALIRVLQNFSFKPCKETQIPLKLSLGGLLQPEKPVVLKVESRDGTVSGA
smiles,measurement,setting,value
"Nc1nc2ccc(C(=O)NCCc3ccc(Cl)c(Cl)c3)cc2s1 [Compound 1a, 2-amino-N-(3,4-dichlorophenethyl)benzo[d]thiazole-6-carboxamide]",inhibition at 10 µM,"[1]; Leishmania infantum, read-out: L. infantum % cell growth inhibition",< 0%
same,L. infantum % cell growth inhibition,[1],inactive
same,CYP 1A2 IC50,CYP1A2,max
same,CYP 2C9 IC50,CYP2C9,max
same,pIC50,CYP2C19,5.07
same,pIC50,CYP3A4,6.00
same,GI50,[2],27 µM
same,A549 cytotoxicity LC50 (50% lethal concentration),A549 cells,max
same,A549 cytotoxicity TGI (total growth inhibition),A549 cells,54.4 µM
same,pIC50,786-O cell line,4.55
same,hERG IC50,hERG,max
